The record followed here is patent US7601355B2, “Compositions and methods for altering immune function” (Northwestern University, priority 2005, dated 2009).

Each structure is given as a SMILES string. Entries after “also recorded” stand apart in the source; their conditions may differ.

The test system of data set [1] is DO11.10 T cells. Description: in vitro screen: 3H-thymidine proliferation of DO11.10 T cells co-cultured with OVA323-339-pulsed dendritic cells (non-specific toxicity screen). As to conditions: 5 mM and 0.1 μM; 16:1 and 64:1 ratio T:DC co-cultures. Format: cell-based, mice. The protocol: The initial biological screen for the selected small molecule compounds was based in functional characteristics of enhancement of Th1 function and secretion of Th1 cytokines (e.g., Interferon-γ (IFN-γ)). In this process, dendritic cells (DC) were obtained by GM-CSF stimulation of bone marrow stem cells for 6 days, pulsed for 18 hours with OVA323-339 peptide to load specific antigen on these antigen presenting cells and then purified using CD11c magnetic bead separation. This population of cells is routinely >98% CD11c positive, as determined by flow cytometry. Transgenic T cells with specificity for the ovalbumin 323-339 epitope (OVA323-339) were obtained from naïve spleens of DO11.10 transgenic mice. The splenic cells were harvested and magnetic beads used to isolate the CD4 T cell population. This latter population of cells is routinely >95% CD4^+. The cells were then co-cultured in round-bottomed 96 well tissue culture plates, at varying ratios, maintaining 2×10^5 CD4^+ T cells in each well, and varying the number of dendritic cells added (See FIG. 2). […]
An initial screen was carried out with 18 compounds, using the in vitro screening process established in Example 2, above. Initially, all 18 compounds were evaluated for toxicity at 5 mM and 0.1 μM, by evaluation of proliferation of 16:1 and 64:1 ratio T:DC co-cultures. […]

In data set [2] the test system is co-cultures of DC-T cells. In words: in vitro screen: IFN-γ secretion in DO11.10 T cell / OVA323-339-peptide loaded dendritic cell co-cultures. Particulars: for IFN-γ enhancement at the highest concentration: 64:1 ratio, 1000 ng/ml; for IFN-γ secretion compared to control samples: initial screen, 16:1 and 64:1 T:DC co-cultures. The class given is cell-based, mice. The protocol: The initial biological screen for the selected small molecule compounds was based in functional characteristics of enhancement of Th1 function and secretion of Th1 cytokines (e.g., Interferon-γ (IFN-γ)). In this process, dendritic cells (DC) were obtained by GM-CSF stimulation of bone marrow stem cells for 6 days, pulsed for 18 hours with OVA323-339 peptide to load specific antigen on these antigen presenting cells and then purified using CD11c magnetic bead separation. This population of cells is routinely >98% CD11c positive, as determined by flow cytometry. Transgenic T cells with specificity for the ovalbumin 323-339 epitope (OVA323-339) were obtained from naïve spleens of DO11.10 transgenic mice. The splenic cells were harvested and magnetic beads used to isolate the CD4 T cell population. This latter population of cells is routinely >95% CD4^+. The cells were then co-cultured in round-bottomed 96 well tissue culture plates, at varying ratios, maintaining 2×10^5 CD4^+ T cells in each well, and varying the number of dendritic cells added (See FIG. 2).
The in vitro screen for functional activity was based on two parameters. The first parameter, ^3H-thymidine incorporation measuring proliferation of OVA323-339-peptide-specific DO11.10 T cells cultured in the presence of OVA323-339-peptide pulsed GM-CSF derived dendritic cells, should not be affected by CD154-CD40 interactions, and thus was used as a screen for non-specific toxicity of the compounds to immune cell co-cultures. The second parameter, which is controlled in the DO11.10 T cell —OVA323-339-peptide loaded dendritic cell co-cultures by CD40 ligation, is that of Interferon-γ secretion by the activated T cells.
Thus, it was hypothesized that if it was possible to enhance immune function by stabilization of CD154-CD40 ligand pair interactions through prolonged stability of CD154 homotrimers, then IFN-γ production should be increased by addition of the small molecule compounds.
An initial screen was carried out with 18 compounds, using the in vitro screening process established in Example 2, above. Initially, all 18 compounds were evaluated for toxicity at 5 mM and 0.1 μM, by evaluation of proliferation of 16:1 and 64:1 ratio T:DC co-cultures. Second, expression of IFN-γ was observed and compared to that of control samples. Of the initial 18 small molecule compounds, 5 compounds were eliminated at this early stage because they inhibited T cell proliferation and were toxic to the cells in culture. […] These two compounds, JFPH and JFPB, were selected for further study, as described below.
Small molecules in DMSO vehicle were added at various dilutions to co-cultures of DC-T cells and after four days supernatants characterized for the production of IFNγ. […]

Data set [3] deals with experimental autoimmune encephalomyelitis (EAE). Description: mouse model of experimental autoimmune encephalomyelitis (EAE), PLP139-151 peptide in CFA. Format: in vivo. The protocol:
Experiments were conducted to confirm that the small molecules could stabilize and therefore enhance Th1 effector function in vivo. Efficacy was tested in a mouse model of experimental autoimmune encephalomyelitis (EAE), a model of Multiple Sclerosis (MS) (See, e.g., Karlsson et al., The Journal of Immunology, 2003, 170: 1019-1026).
EAE is dependent upon CD154-CD40 interactions in the central nervous system (CNS). Initial experiments were carried out to determine the effects of these small molecules on clinical disease severity in an optimal process of induction of EAE. The compounds should not modify the severity of clinical disease over that of the vehicle control treated animals, but enhancement and prolonged Th1 responses peripherally may be observed. Second, experiments were conducted to address whether the severity and/or incidence of EAE disease could be enhanced by the small molecule therapy in mice immunized with suboptimal myelin antigenic peptide, such that the small molecules might enhance in vivo functional activity of the antigen specific Th1 cells induced in these mice, that normally would have low incidence and severity of clinical disease.
Mice were immunized with PLP139-151-peptide in CFA and treated on days 9 and 10 with 100 nmol JFPH in olive oil or vehicle alone. Clinical disease was then evaluated. Clinical severity was assessed on a 0 to 5 scale as follows: grade 1, limp tail; grade 2, limp tail and hind limb weakness (waddling gait); grade 3, partial hind limb paralysis; grade 4, complete hind limb paralysis; and grade 5, moribund. The data are plotted as the daily mean clinical score for all animals in a particular treatment group, and mean day of onset for each mouse was determined and plotted (See, FIG. 5(b)) as a box and whisker plot. When optimal EAE induction was carried out using 50 μg doses of PLP139-151 peptide, disease severity was not affected by treatment with 100 nmol JFPH on days 9 and 10 post-immunization. However, the mean day of disease onset was earlier in the JFPH treated mice compared to vehicle controls (p<0.0001) as determined by a Wilcoxon Sign-Rank test.
In experiments where suboptimal induction of EAE was induced with 25 μg doses of PLP139-151 peptide, the incidence of disease was low for vehicle treated mice (60%) compared to that of JFPH treated mice (100%). Briefly, mice were immunized with 25 μg PLP139-151-peptide in CFA and treated on days 0, 1, 8 and 9 with 100 nmol JFPH in olive oil or vehicle of olive oil alone (FIG. 6, treatment days marked by downward triangles). Clinical disease was evaluated and the cumulative mean clinical scores determined by addition of scores cumulatively with each subsequent day of evaluation (FIG. 6, right panel). The average maximum score for vehicle treated mice was 1.2 (due in part to one individual mouse) versus 1.8 for JFPH treated mice, and in both mean day of onset and mean day of peak disease severity, the JFPH treated mice reached these time points an average of 3 days earlier than that of vehicle treated mice.

In data set [4] the test system is syngeneic renal cell carcinoma (RCC) cells. Description: sub-cutaneous renal cell carcinoma tumor model. Format: in vivo, Balb/c mice. Particulars: various concentrations, i.p. in olive oil 3x/week for 3 weeks from day 3. The protocol:
(§1) In order to evaluate the efficacy of JFPH in a murine tumor model, Balb/c mice were first injected with syngeneic renal cell carcinoma (RCC) cells. The injections were delivered either sub-cutaneously or orthotopically under the kidney capsule (intra-renal). JFPH drug was diluted in olive oil to a desired concentration. Mice were injected with JFPH in olive oil intra-peritoneally 3×/week for a total of 3 weeks, beginning on day 3 post-tumor cell injection. As a vehicle control, mice were administered with only olive oil (no JFPH). For the sub-cutaneous tumor model, primary tumors were measured with calipers 3×/week and the tumor area was calculated. For the intra-renal tumor model, mice were euthanized on day 21 post tumor-cell injection and the lungs were harvested and placed in fixative. The number of lung metastases were then counted under a dissecting microscope.

Data set [5] has the same test system. Description: intra-renal renal cell carcinoma tumor model, lung metastases. Particulars: 500 nmoles i.p. in olive oil 3x/week for 3 weeks. The class given is in vivo, Balb/c mice. The protocol:
as §1

Where [6] appears, read: suboptimal EAE induction, 25 μg PLP139-151.
The mark [7] stands for this setting: suboptimal EAE induction, 25 μg PLP139-151, 100 nmol days 0, 1, 8 and 9.

With `CCOC(=O)NC(=O)c1cn(CCNc2ncc(C(F)(F)F)cc2Cl)c(=O)[nH]c1=O` [JFPB, ethyl N-[[1-(2-[[3-chloro-5-(trifluoromethyl)-2-pyridinyl]amino]ethyl)-2,4-dioxo-1,2,3,4-tetrahydro-5-pyrimidinyl]carbonyl]carbamate], in data set [1], the T cell proliferation result is recorded as “no effect”. Further, in data set [2], the “IFN-γ enhancement at the highest concentration” value is listed as “reduced IFN-γ enhancement” and the “IFN-γ secretion compared to control samples” value was “consistently enhanced IFN-γ secretion”.

Regarding `FC(F)(F)c1cc(N2CCCCCCC2)c2c(Cl)cc(Cl)cc2n1` [JFPH, 4-azocan-1-YL-5,7-dichloro-2-(trifluoromethyl)quinoline], the T cell proliferation entry in data set [1] is given as “no effect”. In addition, in data set [2], the “IFN-γ enhancement at the highest concentration” value is given as “enhancement was observed” and the “IFN-γ secretion compared to control samples” value is “consistently enhanced IFN-γ secretion”. Besides, in data set [3] (EAE induced under suboptimal conditions), the disease onset result is listed as “accelerated disease onset”. Besides, the “mean day of onset” value in data set [3] (optimal EAE induction, 50 μg PLP139-151, 100 nmol days 9 and 10, ± standard deviation) was determined as 15.47 ± 1.68 days. In addition, the “disease severity (clinical score 0 to 5)” value in data set [3] (optimal EAE induction, 50 μg PLP139-151, 100 nmol in olive oil days 9 and 10) is listed as “not affected”. Further, the “disease onset compared to vehicle controls” value in data set [3] (optimal EAE induction, 100 nmol days 9 and 10) is reported as “accelerated disease onset; also recorded: earlier”. Besides, in data set [3] (setting [6]), the “disease course longer than vehicle control” value came out at 3 days; the “mean day of onset, earlier than vehicle treated mice” value is 3 days; the “mean day of peak disease severity, earlier than vehicle treated mice” value is 3 days. In data set [3] (setting [7]), this compound showed an average maximum score of 1.8 and an incidence of disease of 100%. For the same compound, the “mean day of remission versus vehicle” value in data set [3] (suboptimal EAE induction, remission = reduction of one full score for two days) was “no difference”. The “sub-cutaneous renal cancer tumor growth (tumor area) versus control mice” value in data set [4] is reported as “delays sub-cutaneous growth of renal cancer; also recorded: delayed renal cancer tumor growth”. Also, the “renal cancer metastasis (number of lung metastases, day 21) versus control mice” value in data set [5] is on record as “reduces renal cancer metastasis; also recorded: significant reduction of renal cancer metastasis”.
